The source of these data is ChEMBL document CHEMBL1133833, “Dopaminergic 7-aminotetrahydroindolizines: ex-chiral pool synthesis and preferential D3 receptor binding” (Bioorg Med Chem Lett, 2001).

A value given as a limit tells only on which side of the number the result lay.

In test [1] the target is T1, D(2) dopamine receptor (Bos taurus, UniProt P20288). In words: In vitro ability to displace [3H]-spiperone from bovine cloned Dopamine receptor D2 stably expressed in CHO cells. Format: cell-based.
T1 sequence (P20288 whole entry): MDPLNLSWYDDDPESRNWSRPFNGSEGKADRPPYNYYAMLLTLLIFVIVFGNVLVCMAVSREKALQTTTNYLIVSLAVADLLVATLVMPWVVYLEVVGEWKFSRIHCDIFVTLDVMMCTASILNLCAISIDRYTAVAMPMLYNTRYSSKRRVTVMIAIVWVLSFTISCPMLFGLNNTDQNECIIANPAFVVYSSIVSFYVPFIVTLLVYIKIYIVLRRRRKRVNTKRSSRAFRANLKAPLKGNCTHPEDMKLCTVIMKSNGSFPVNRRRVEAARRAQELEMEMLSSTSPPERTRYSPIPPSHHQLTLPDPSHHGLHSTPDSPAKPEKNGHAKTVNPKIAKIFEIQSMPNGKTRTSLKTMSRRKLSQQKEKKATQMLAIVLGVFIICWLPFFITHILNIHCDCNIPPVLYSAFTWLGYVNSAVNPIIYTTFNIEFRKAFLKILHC
Another test addresses D(3) dopamine receptor (Homo sapiens, UniProt P35462).
The next test deals with D(1A) dopamine receptor (Bos taurus, UniProt Q95136). In words: In vitro ability to displace [3H]SCH-23390 from bovine Dopamine receptor D1 in striatal membranes.
Sequence of D(1A) dopamine receptor (Q95136 whole entry): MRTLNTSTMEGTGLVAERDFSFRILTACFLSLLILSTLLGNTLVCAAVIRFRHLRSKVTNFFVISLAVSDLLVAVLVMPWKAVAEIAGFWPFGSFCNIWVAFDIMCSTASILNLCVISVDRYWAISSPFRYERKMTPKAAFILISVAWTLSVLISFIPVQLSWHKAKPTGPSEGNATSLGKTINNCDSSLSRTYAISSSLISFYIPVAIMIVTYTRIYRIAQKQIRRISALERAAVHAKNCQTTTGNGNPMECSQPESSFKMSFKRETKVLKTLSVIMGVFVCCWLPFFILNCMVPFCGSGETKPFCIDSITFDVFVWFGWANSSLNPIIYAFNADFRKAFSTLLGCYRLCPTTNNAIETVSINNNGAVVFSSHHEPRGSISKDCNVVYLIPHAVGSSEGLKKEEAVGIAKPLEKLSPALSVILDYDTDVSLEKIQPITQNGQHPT
Test [2] concerns the target T1, D(2) dopamine receptor. As to the kind of experiment: In vitro ability to displace [3H]pramipexole from high affinity binding sites of bovine D2 receptors in striatal membranes.

Sequence of D(3) dopamine receptor (P35462 whole entry): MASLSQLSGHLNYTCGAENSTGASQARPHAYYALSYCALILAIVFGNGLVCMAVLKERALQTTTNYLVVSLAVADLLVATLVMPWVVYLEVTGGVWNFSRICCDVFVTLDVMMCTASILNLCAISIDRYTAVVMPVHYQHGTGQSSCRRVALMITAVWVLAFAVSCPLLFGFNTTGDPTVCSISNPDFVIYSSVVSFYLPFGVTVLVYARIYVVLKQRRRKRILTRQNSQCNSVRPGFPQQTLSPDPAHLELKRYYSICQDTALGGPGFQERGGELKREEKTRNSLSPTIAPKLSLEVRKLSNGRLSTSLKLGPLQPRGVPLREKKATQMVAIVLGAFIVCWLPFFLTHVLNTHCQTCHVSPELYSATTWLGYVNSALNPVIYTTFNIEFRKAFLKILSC
Description for D(3) dopamine receptor: In vitro ability to displace [3H]spiperone from human cloned Dopamine receptor D3 stably expressed in CHO cells.

For orientation: Ki means a measure of affinity in units of concentration, obtained from inhibition or displacement. Low readings indicate higher affinity, high ones lower affinity. With `CCCN(CCC)[C@@H]1CCn2c(C)ccc2C1`, the Ki on D(2) dopamine receptor [1] was found to be 1.3 µM; on D(3) dopamine receptor, 0.59 µM; at D(1A) dopamine receptor it was 12 µM; at D(2) dopamine receptor [2], 0.43 µM.
Take `CCCN(CCC)[C@H]1CCn2cc(C)cc2C1`: the Ki at D(2) dopamine receptor [1] was 9.6 µM; on D(3) dopamine receptor, 0.77 µM; at D(1A) dopamine receptor it was 44 µM; at D(2) dopamine receptor [2] it was 0.64 µM.
As to `CCCN(CCC)[C@@H]1CCn2cc(C)cc2C1`, the Ki on D(2) dopamine receptor [1] came out at 17 µM; on D(3) dopamine receptor it was 1.3 µM; at D(1A) dopamine receptor it was 83 µM; on D(2) dopamine receptor [2], 0.8 µM.
As to `CCCN(CCC)[C@H]1CCn2ccc(C=O)c2C1`, the Ki at D(2) dopamine receptor [1] was 5.9 µM; on D(3) dopamine receptor, 3.6 µM; on D(1A) dopamine receptor it was greater than 100 µM; at D(2) dopamine receptor [2] it was 1.6 µM.
In the case of `CCCN(CCC)[C@H]1CCn2ccc(C)c2C1`, the Ki at D(2) dopamine receptor [1] came to 4 µM; at D(3) dopamine receptor, 0.75 µM; at D(1A) dopamine receptor it was 68 µM; on D(2) dopamine receptor [2], 0.38 µM.
For `CCCN(CCC)[C@@H]1CCn2ccc(C)c2C1` the same measures were 12 µM, 2.1 µM, 71 µM and 1 µM.
Turning to `CCCN(CCC)[C@H]1CCn2c(CO)ccc2C1`, the Ki was 5.5 µM at D(2) dopamine receptor [1], 0.42 µM at D(3) dopamine receptor, 13 µM at D(1A) dopamine receptor and 0.087 µM on D(2) dopamine receptor [2].
With `CCCN(CCC)[C@H]1CCn2c(C)ccc2C1`, the Ki at D(2) dopamine receptor [1] is 3.8 µM; at D(3) dopamine receptor, 0.43 µM; on D(1A) dopamine receptor it was 29 µM; at D(2) dopamine receptor [2], 0.15 µM.
For `CCCN(CCC)[C@@H]1CCn2cccc2C1` the same measures were 4.1 µM, 0.56 µM, greater than 100 µM and 0.15 µM.
For the compound `CCCN(CCC)[C@@H]1CCn2ccc(CO)c2C1`, the Ki was 6.1 µM on D(2) dopamine receptor [1], 0.33 µM at D(3) dopamine receptor, 100 µM on D(1A) dopamine receptor and 0.2 µM at D(2) dopamine receptor [2].
As to `CCCN(CCC)[C@H]1CCn2cc(CO)cc2C1`, the Ki is greater than 100 µM at D(2) dopamine receptor [1], 8.6 µM on D(3) dopamine receptor, greater than 100 µM on D(1A) dopamine receptor and 13 µM on D(2) dopamine receptor [2].
As for `CCCN(CCC)[C@@H]1CCn2ccc(C=O)c2C1`, the Ki on D(2) dopamine receptor [1] was determined as 12 µM; at D(3) dopamine receptor, 0.51 µM; at D(1A) dopamine receptor it was 80 µM; on D(2) dopamine receptor [2], 0.38 µM.
For `CCCN(CCC)[C@@H]1CCn2c(C=O)ccc2C1` the same measures were 21 µM, 1.8 µM, 47 µM and 1.7 µM.
On to `CCCN(CCC)[C@H]1CCn2c(C=O)ccc2C1`, for which the Ki worked out at 26 µM at D(1A) dopamine receptor and 0.021 µM on D(2) dopamine receptor [2].
For `CCCN(CCC)[C@H]1CCn2ccc(CO)c2C1`, the Ki on D(2) dopamine receptor [1] is 55 µM; at D(3) dopamine receptor it was 9.7 µM; on D(1A) dopamine receptor, greater than 100 µM; on D(2) dopamine receptor [2], 8 µM.
On to `CCCN(CCC)[C@@H]1CCn2c(CO)ccc2C1`, for which the Ki on D(2) dopamine receptor [1] is 37 µM; on D(3) dopamine receptor, 7.4 µM; on D(1A) dopamine receptor, greater than 100 µM; at D(2) dopamine receptor [2] it was 4.7 µM.
As to `CCCN(CCC)[C@@H]1CCn2cc(CO)cc2C1`, the Ki at D(2) dopamine receptor [1] was 34 µM; on D(3) dopamine receptor, 1.4 µM; at D(1A) dopamine receptor it was greater than 100 µM; at D(2) dopamine receptor [2], 1 µM.
